Assay results taken from patent publication US8735414B2 (priority 2009, dated 2014).

Assays:
[1] = test system: bicistronic HCV replicon (replicon RNA, GenBank Accession No. AJ242654); test: HCV Replicon Assay; assay type: cell-based; details: Hepatitis C virus, 72 h, read-out: Replicon IC50

Row | SMILES | IC50 [1] [nM] | melting point [°C]
1 | Cc1cc2c(cc1F)c(C#N)c(-c1ccc(NS(=O)(=O)N[C@@H](C)C(F)(F)F)cn1)n2C1CCCC1 [compound 836, N-[6-(3-cyano-1-cyclopentyl-5-fluoro-6-methyl-1H-indol-2-yl)pyridin-3-yl]-N′-[(2S)-1,1,1-trifluoropropan-2-yl]sulfuric diamide] | 500 to 2000 | 206 to 208
2 | Cc1cc2c(cc1F)c(C#N)c(-c1ccc(S(=O)(=O)N[C@@H](C)C(F)(F)F)cn1)n2C1CCC1 [compound 340, 6-(3-cyano-1-cyclobutyl-5-fluoro-6-methyl-1H-indol-2-yl)-N-[(2S)-1,1,1-trifluoropropan-2-yl]pyridine-3-sulfonamide] | < 500 | 218 to 219
3 | C[C@H](NS(=O)(=O)c1ccc(-c2c(C#N)c3cc(F)ccc3n2C2CCCCC2)nc1)C(F)(F)F [compound 410, 6-(3-cyano-1-cyclohexyl-5-fluoro-1H-indol-2-yl)-N-[(2S)-1,1,1-trifluoropropan-2-yl]pyridine-3-sulfonamide] | < 500 | 209 to 211
4 | CCc1cc2c(cc1F)c(C(N)=O)c(-c1ccc(S(=O)(=O)NC3(C(F)(F)F)CC3)cn1)n2-c1ncccn1 [compound 979, 6-ethyl-5-fluoro-1-(pyrimidin-2-yl)-2-(5-{[1-(trifluoromethyl)cyclopropyl]sulfamoyl}pyridin-2-yl)-1H-indole-3-carboxamide] | 2000 to 5000 | 240 to 247
5 | C[C@H](NS(=O)(=O)c1ccc(-c2c(C#N)c3cc(Cl)ccc3n2-c2ccccc2)nc1)C(F)(F)F [compound 441, 6-(5-chloro-3-cyano-1-phenyl-1H-indol-2-yl)-N-[(2S)-1,1,1-trifluoropropan-2-yl]pyridine-3-sulfonamide] | < 500 | 210 to 212
6 | CCc1cc2c(cc1F)c(C#N)c(-c1cc(C)c(S(=O)(=O)N[C@H](C)C(F)(F)F)cn1)n2-c1ncccn1 [compound 890, 6-[3-cyano-6-ethyl-5-fluoro-1-(pyrimidin-2-yl)-1H-indol-2-yl]-4-methyl-N-[(2R)-1,1,1-trifluoropropan-2-yl]pyridine-3-sulfonamide] | < 500 | 231 to 236
7 | N#Cc1c(-c2ccc(S(=O)(=O)NC(CF)CF)cn2)n(C2CCCC2)c2cc(CC(F)F)ccc12 [compound 593, 6-[3-cyano-1-cyclopentyl-6-(2,2-difluoroethyl)-1H-indol-2-yl]-N-(1,3-difluoropropan-2-yl)pyridine-3-sulfonamide] | < 500 | 178 to 184
8 | COc1ccc2c(C#N)c(-c3ccc(S(=O)(=O)N[C@@H](C)C4CC4)cn3)n(C3CCC3)c2c1 [compound 429, 6-(3-cyano-1-cyclobutyl-6-methoxy-1H-indol-2-yl)-N-[(1S)-1-cyclopropylethyl]pyridine-3-sulfonamide] | < 500 | 193 to 199
9 | Cc1cc(-c2c(C#N)c3cc(F)ccc3n2-c2ncccn2)ncc1S(=O)(=O)N[C@@H](C)C(F)(F)F [compound 848, 6-[3-cyano-5-fluoro-1-(pyrimidin-2-yl)-1H-indol-2-yl]-4-methyl-N-[(2S)-1,1,1-trifluoropropan-2-yl]pyridine-3-sulfonamide] | < 500 | 199 to 204
10 | Cc1cc2c(cc1F)c(C(N)=O)c(-c1ccc(S(=O)(=O)NC3(C(F)(F)F)CC3)cn1)n2C1CCCCC1 [compound 857, 1-cyclohexyl-5-fluoro-6-methyl-2-(5-{[1-(trifluoromethyl)cyclopropyl]sulfamoyl}pyridin-2-yl)-1H-indole-3-carboxamide] | < 500 | 273 to 274
11 | Cc1cc2c(C#N)c(-c3ccc(S(=O)(=O)N[C@@H](C)C(F)(F)F)cn3)n(C3CCC3)c2cc1Cl [compound 506, 6-(6-chloro-3-cyano-1-cyclobutyl-5-methyl-1H-indol-2-yl)-N-[(2S)-1,1,1-trifluoropropan-2-yl]pyridine-3-sulfonamide] | < 500 | 198 to 198.5
12 | COc1ccc2c(C#N)c(-c3ccc(S(=O)(=O)N[C@H](C)C(F)(F)F)cn3)n(C3CCCCC3)c2c1 [compound 518, 6-(3-cyano-1-cyclohexyl-6-methoxy-1H-indol-2-yl)-N-[(2R)-1,1,1-trifluoropropan-2-yl]-pyridine-3-sulfonamide] | < 500 | 198 to 204
13 | CCc1cc2c(cc1F)c(C#N)c(-c1ccc(S(=O)(=O)NC3(C)CC3)cn1)n2-c1ncccn1 [compound 860, 6-[3-cyano-6-ethyl-5-fluoro-1-(pyrimidin-2-yl)-1H-indol-2-yl]-N-(1-methylcyclopropyl)pyridine-3-sulfonamide] | < 500 | 169 to 179
14 | C[C@H](NS(=O)(=O)c1cnc(-c2c(C#N)c3cc(F)ccc3n2C2CCC2)nc1)C1CC1 [compound 544, 2-(3-cyano-1-cyclobutyl-5-fluoro-1H-indol-2-yl)-N-[(1S)-1-cyclopropylethyl]pyrimidine-5-sulfonamide] | < 500 | 178 to 181
15 | C[C@H](NS(=O)(=O)c1cnc(-c2c(C#N)c3ccc(Cl)cc3n2C2CCCCC2)nc1)C(F)(F)F [compound 516, 2-(6-chloro-3-cyano-1-cyclohexyl-1H-indol-2-yl)-N-[(2S)-1,1,1-trifluoropropan-2-yl]pyrimidine-5-sulfonamide] | < 500 | 215 to 220
16 | CCc1cc2c(cc1F)c(C(N)=O)c(-c1ccc(S(=O)(=O)N[C@@H](C)C(F)(F)F)cn1)n2-c1cc(C)ccn1 [compound 980, 6-ethyl-5-fluoro-1-(4-methylpyridin-2-yl)-2-(5-{[(2S)-1,1,1-trifluoropropan-2-yl]sulfamoyl}pyridin-2-yl)-1H-indole-3-carboxamide] | 500 to 2000 | 137 to 145
17 | N#Cc1c(-c2ccc(S(=O)(=O)NC(CF)CF)cn2)n(-c2ccccn2)c2cc(OC(F)F)ccc12 [compound 249, 6-[3-cyano-6-(difluoromethoxy)-1-(pyridin-2-yl)-1H-indol-2-yl]-N-(1,3-difluoropropan-2-yl)pyridine-3-sulfonamide] | < 500 | 186 to 190
18 | CCc1cc(F)c2c(C(N)=O)c(-c3ccc(NS(=O)(=O)C(C)(C)C)nc3)n(-c3ccc(F)cc3)c2c1 [compound 1106, 2-{6-[(tert-butylsulfonyl)amino]pyridin-3-yl}-6-ethyl-4-fluoro-1-(4-fluorophenyl)-1H-indole-3-carboxamide] | < 500 | 280 to 288
19 | CCc1cc2c(cc1F)c(C(N)=O)c(-c1ccc(NS(=O)(=O)C(C)(C)C)nc1)n2[C@@H](C)C1CC1 [compound 1083, 2-{6-[(tert-butylsulfonyl)amino]pyridin-3-yl}-1-[(1S)-1-cyclopropylethyl]-6-ethyl-5-fluoro-1H-indole-3-carboxamide] | < 500 | 256 to 259
20 | C[C@H](NS(=O)(=O)c1ccc(-c2c(C#N)c3ccc(CC(F)F)cc3n2C2CCC2)nc1)C1CC1 [compound 590, 6-[3-cyano-1-cyclobutyl-6-(2,2-difluoroethyl)-1H-indol-2-yl]-N-[(1S)-1-cyclopropylethyl]pyridine-3-sulfonamide] | < 500 | 146 to 155
